Data as given in the METLIN SMRT retention time set (Domingo-Almenara et al. 2019).

assay: gradient 5% acetonitrile 3 min, to 50% in 2 min, to 85% in 15 min, held 3 min, 100 µL/min; details: column: Zorbax Extend-C18 2.1 x 50 mm; eluents: water / acetonitrile, 0.1% formic acid
Method in brief: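 Each retention time is based on an adduct peak selected computationally and verified by manual inspection. Measurements used HPLC–quadrupole time-of-flight mass spectrometry in positive and negative ionization mode on mixtures of ~100 pure standards. Chromatography ran on a Zorbax Extend-C18 column (2.1 × 50 mm, 1.8 μm) at 100 μL/min with water and acetonitrile, each containing 0.1% formic acid, and dead and dwell volumes of 40 μL and 900 μL.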

Structure (SMILES) | RP-LC retention time [s]
CS(=O)(=O)N1CCC(OC2CCN(C(=O)Nc3ccccc3Cl)CC2)CC1 | 785
COc1ccc2c(c1)C1(CCN(S(=O)(=O)c3cccc(Cl)c3)C1)C(=O)N2C (centres undefined) | 978
CS(=O)(=O)N1CCC(OC2CCN(C(=O)Nc3ccc(Cl)cc3F)CC2)CC1 | 783
CCOC(=O)C1CC(C)=C(C)CC1C(=O)O (centres undefined) | 854
O=c1[nH]ccc2c(O)cccc12 | 584
COc1cc(COc2cc(N)c(Cl)cc2C(=O)CCC2CCN(CCNS(C)(=O)=O)CC2)cc(OC)c1 | 761
COc1ccc(OC)c(NC(=O)C2CCCN2S(=O)(=O)c2ccc3c(c2)NC(=O)CO3)c1 (centres undefined) | 803
CNC(=O)N1CCCC(c2cccc(C(=O)NCc3ccc(F)cc3F)c2)C1 (centres undefined) | 775
Cc1cccc(N2CCN(c3cc(C(=O)O)c4cc(NC(=O)C(C)C)ccc4n3)CC2)c1C | 732
Cc1cc(C)c(NC(=O)C2CCCN2S(=O)(=O)c2cc3c(cc2C)NC(=O)CO3)c(C)c1 (centres undefined) | 799
Cc1sc(C)c(S(=O)(=O)NCc2ccc3c(c2)OCO3)c1-c1cc(C(F)(F)F)on1 | 1120
CCCn1ccc2sc(C)c(C(=O)O)c2c1=O | 774
Cn1cc(C(=O)N2CCOCC2)cc(NC(=O)c2cccs2)c1=O | 596
CCSc1nnc(-c2nn(C)c3c2CN(S(=O)(=O)c2ccc(C)c(Cl)c2)CC3)n1CC | 1050
O=C(NCCCN1CCCC1)C1CCN(c2nccnc2Sc2ccccc2)CC1 | 650
CC1CN(CCc2ccccc2)c2nc3c(c(=O)n(CCN4CCOCC4)c(=O)n3C)n2C1 (centres undefined) | 680
CCNS(=O)(=O)c1c(C)[nH]c(=O)[nH]c1=O | 550
CCc1nnc(-c2cc(C)n(CC(=O)Nc3ccc(F)c(Cl)c3)c2C)o1 | 861
CC(C)n1cc(S(=O)(=O)Nc2cc(F)ccc2Cl)c2cccnc21 | 989
O=C(Nc1ccc(C(=O)N2CCC(C(=O)NC3CCCCCC3)CC2)cc1)c1ccccc1Cl | 839
O=C(Nc1ccc2cn[nH]c2c1)C1CC1 | 608
CN(C)C(=O)c1cc(N(C)C)nc2ccc(F)cc12 | 575

Structure (SMILES) | RP-LC retention time [s]
COc1ccc(NC(=O)c2cn3c(n2)CSCC3)cc1OC | 631
CN1CCN(Cc2nn(C)c3c2CN(S(=O)(=O)c2ccc(F)c(Cl)c2)CC3)CC1 | 622
CCc1cccc(NS(=O)(=O)c2ccc(-c3nnc(C4CCC4)o3)o2)c1 | 1000
OC[C@H]1O[C@@H](n2cnc3c(NC4CCCCC4)ncnc32)[C@H](O)[C@@H]1O | 656
COc1cc(-c2nnc(-c3ccc(C)c(S(=O)(=O)N4CCOCC4)c3)o2)cc(OC)c1OC | 891
CC(C)n1cc(S(=O)(=O)N2CCN(c3ccccc3Cl)CC2)c2cccnc21 | 761
Cc1[nH]c(=O)[nH]c(=O)c1CCc1nnc(SCC(=O)NCc2ccco2)o1 | 566
COc1cccc(CNC(=O)NCCC2CCN(S(=O)(=O)c3ccccc3)CC2)c1 | 821
CC(C)NC(=O)C1=CCN(C(=O)c2cccc(F)c2)CC1 | 712
COCC(=O)Nc1cc(=O)n(C)c(=O)n1C | 552
COc1ccc(S(=O)(=O)N2CCCC(C(=O)Nc3ccc(Cl)c(Cl)c3)C2)cc1C (centres undefined) | 1180
O=C1COc2cc(S(=O)(=O)N3CCCC3C(=O)Nc3ccccc3)c(Cl)cc2N1 (centres undefined) | 768
COc1ccc(NC(=O)c2[nH]c3cc(C)sc3c2CN(C)C)cc1F | 680
CC(CCNC(=O)Cn1c2ccccc2c2cnn(C)c(=O)c21)N1CCCC1 (centres undefined) | 595
CC(C)NC(=O)N1CCCC(c2cccc(C(=O)NCCN3CCOCC3)c2)C1 (centres undefined) | 591
Cc1ccc(S(=O)(=O)N2CCC(CCNC(=O)NCCc3ccccc3)CC2)cc1 | 924
O=S(=O)(Nc1ccc(N2CCOCC2)cc1)c1ccc(-c2nnc(C3CCC3)o2)o1 | 828
Cc1ccc(NC(=O)C2CC(=O)N(c3n[nH]c4cccc(F)c34)C2)c(C)c1 (centres undefined) | 770
Cc1oc(C2CCN(S(=O)(=O)c3cc(F)ccc3F)CC2)nc1C(=O)N(C)C | 816
Cc1nc(CCNS(=O)(=O)c2cccnc2)no1 | 603
Cc1cnc(C2CN(Cc3ccccn3)C2)n1CC1CC1 | 538

The next lines start with the values.

RP-LC retention time [s] | Structure (SMILES)
1110 | Cc1ccc(NC(=O)CSc2nccc(N3CCN(c4cc(C)ccc4C)CC3)n2)c(F)c1
1290 | Cc1ccc(-c2csc(NC(=O)COc3ccc(C)cc3Br)n2)cc1
1010 | O=c1n(Cc2nc(-c3ccc(F)c(Br)c3)no2)nc2ccc(-c3ccccc3)nn12
904 | O=c1ccc(-c2nc(-c3ccncc3)no2)nn1Cc1ccc(F)cc1Cl
698 | COc1ccc(C2Cn3cnc(C(=O)N4CCC(C(=O)NCc5ccco5)CC4)c3CO2)cc1 (centres undefined)
975 | Cc1ccccc1Cn1c2ccccc2c2cnn(CC(=O)NCc3ccco3)c(=O)c21
525 | Cc1noc(C)c1CN1CCC(n2c(C)cnc2-c2ccncc2)C1 (centres undefined)
1220 | Cc1ccc(S(=O)(=O)N2CCCCCC2)cc1-c1nnc(-c2ccc(F)cc2)o1
1110 | O=S(=O)(c1ccccc1F)N1CCC(c2noc(-c3cccc(F)c3)n2)CC1
742 | O=C(NCc1ccc2c(c1)OCO2)C1CCN(c2ccc(SCc3ccccc3)nn2)CC1
793 | CC1Cc2ccccc2N1C(=O)c1ccc(=O)n(CCC(=O)NC2CCCCC2)n1 (centres undefined)
646 | CCN(CC)CCNc1ccc(CO)c2sc3ccccc3c(=O)c12
859 | Cc1ccc(NC(=O)Cn2nc3c(Oc4ccc(F)cc4)nccn3c2=O)cc1
1050 | O=C(Nc1cc(-c2cccs2)no1)C1(c2ccccc2)CC1
743 | O=C(NCc1[nH]nc2ccccc12)C1CC(=O)N(c2cccc(Cl)c2)C1 (centres undefined)
1400 | Cc1ccc(C2Cn3nnc(-c4nc(-c5cccc(Cl)c5)no4)c3CO2)c(C)c1 (centres undefined)
733 | CCOc1ccc(OCC)c(S(=O)(=O)N2CCN(c3nc(C)cc(N(C)C)n3)CC2)c1
905 | Cn1nc(-c2nc(Cc3ccccc3)no2)c2c1CCN(C(=O)Nc1ccccc1)C2
577 | Cc1c(Cl)cccc1N1CC(c2nc3ccccc3[nH]2)CC1=O (centres undefined)
975 | O=C(c1ccccn1)N1CCc2cc(-c3csc(C4CC4)n3)ccc21
764 | CCOC(=O)c1cnc2nc(C)ccc2c1Nc1ccc(F)c(Cl)c1
949 | O=C(CCc1nc(CSc2nnc(-c3ccccc3)o2)no1)Nc1ccc(Cl)cc1
730 | CCOC(=O)C1CCc2sc(NC(=O)C3COCC(=O)N3Cc3ccccc3)nc21 (centres undefined)

RP-LC retention time [s] | Structure (SMILES)
650 | CCOc1nccnc1N1CCC(NC(=O)c2ccc(C#N)cc2)C1 (centres undefined)
576 | O=C1CC(c2noc(CN3CCN(c4ccccn4)CC3)n2)CN1c1ccc(F)cc1 (centres undefined)
591 | CCOc1ccc(C(O)CN2CCN(c3ccccn3)CC2)cc1Cl (centres undefined)
618 | COc1ccc2[nH]c(=O)c(CCC(=O)N(C)Cc3cn(C)nc3C)cc2c1
871 | Cc1ccc(NC(=O)Cn2nc(N3CCOCC3)c3ccccc3c2=O)c(Cl)c1
867 | CCOC(=O)CNC(=O)N1CCN(c2nc3ccccc3n(Cc3ccccc3)c2=O)CC1
749 | COc1cc(NC(=O)N2CCN(c3ccc(=O)n(-c4ccc(C)cc4)n3)CC2)cc(OC)c1OC
784 | O=C(c1ccc2ccccc2n1)N1CCOc2ccc(N3CCOCC3)cc2C1
612 | CCOc1ccccc1N1CCN(Cc2cc(C)[nH]n2)CC1
644 | CCOc1coc(C(=O)NCc2ccccc2OC)cc1=O
695 | Cc1ccc(-c2noc(-c3ccc(NCCCN4CCOCC4)nc3)n2)cc1
1130 | Cc1[nH]nc(-c2c(C)sc(C)c2S(=O)(=O)NCCCc2ccccc2)c1C
760 | CN1C(=O)c2cc(C(=O)NCc3ccc(F)cc3)nn2CC1(C)C(=O)NCc1ccc(F)cc1 (centres undefined)
744 | CC(CCc1ccccc1)NC(=O)Cc1nnc(-c2ccccn2)o1 (centres undefined)
808 | CCn1ccc(C(=O)N2CC(Oc3cccc(-c4nc(C)no4)c3)C2)n1
862 | Cc1ccc(CCNC(=O)c2ccc3c(c2)NC(=O)C2CCCCN32)cc1 (centres undefined)
933 | COc1ccc(NC(=O)c2cc(C)n3nc(-c4ccco4)cc3n2)cc1OC
1160 | CCOc1ccc(-c2cc3c(=O)n(Cc4nc(-c5ccccc5Br)no4)ncn3n2)cc1
1160 | CCn1nccc1-c1cccc(-c2noc(-c3ccc(CS(=O)(=O)c4ccccc4)cc3)n2)c1
776 | CCc1cccc(C)c1N(C(=O)Cn1c(CC)nc2ccccc21)C(C)COC (centres undefined)
946 | Cc1c(-c2nsc(Nc3ccccc3)n2)nnn1-c1ccccc1
725 | O=C(Oc1ccc2c(c1)O/C(=C\c1ccncc1)C2=O)c1ccc2c(c1)OCO2
603 | COc1ccc(C(CC(=O)NCCN2CCOCC2)N2Cc3ccccc3C2=O)cc1OC (centres undefined)
